Experimental data published in US8329904B2, “Azacyclic derivatives” (Hoffmann-La Roche Inc., priority 2009, dated 2012).

Target: T1, human HSL (Homo sapiens, UniProt Q05469)
T1 construct: overlapping PCR to generate a full length human HSL ORF with a 3′-His6 tag; His6 (C); made in house; host or cells: High 5 insect cells (baculovirus, pFast-BAC)
T1 sequence (Q05469 1-1076): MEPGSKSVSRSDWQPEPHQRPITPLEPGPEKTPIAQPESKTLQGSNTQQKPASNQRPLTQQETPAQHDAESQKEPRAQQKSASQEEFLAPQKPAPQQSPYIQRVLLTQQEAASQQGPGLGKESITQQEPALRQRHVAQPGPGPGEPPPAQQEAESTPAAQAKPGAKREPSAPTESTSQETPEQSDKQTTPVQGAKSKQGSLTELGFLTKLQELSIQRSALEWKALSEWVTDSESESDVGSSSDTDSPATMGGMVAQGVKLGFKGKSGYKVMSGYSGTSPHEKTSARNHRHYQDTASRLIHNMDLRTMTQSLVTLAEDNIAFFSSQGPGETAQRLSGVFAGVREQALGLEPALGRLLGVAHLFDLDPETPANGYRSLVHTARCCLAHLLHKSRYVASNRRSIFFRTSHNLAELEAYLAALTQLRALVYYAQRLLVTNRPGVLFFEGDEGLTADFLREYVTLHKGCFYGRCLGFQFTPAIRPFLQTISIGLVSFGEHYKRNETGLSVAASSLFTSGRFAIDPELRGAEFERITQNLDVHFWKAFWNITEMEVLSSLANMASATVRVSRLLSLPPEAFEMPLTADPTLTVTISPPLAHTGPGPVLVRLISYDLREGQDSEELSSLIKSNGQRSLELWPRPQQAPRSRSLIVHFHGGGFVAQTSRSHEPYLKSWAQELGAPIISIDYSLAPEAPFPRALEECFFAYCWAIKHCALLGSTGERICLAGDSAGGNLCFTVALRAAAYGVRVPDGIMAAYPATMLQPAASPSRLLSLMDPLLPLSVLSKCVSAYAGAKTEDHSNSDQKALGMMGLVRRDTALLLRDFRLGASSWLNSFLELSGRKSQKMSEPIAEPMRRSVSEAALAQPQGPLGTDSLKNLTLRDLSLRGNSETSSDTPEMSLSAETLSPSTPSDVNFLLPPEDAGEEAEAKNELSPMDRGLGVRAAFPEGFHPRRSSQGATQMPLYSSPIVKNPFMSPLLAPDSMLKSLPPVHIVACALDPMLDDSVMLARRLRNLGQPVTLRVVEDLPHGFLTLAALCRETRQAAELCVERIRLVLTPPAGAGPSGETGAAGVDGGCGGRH
Assay: Human Hormone-Sensitive Lipase (HSL) Enzyme Inhibition Assay
Assay type: biochemical
Details: colorimetric assay, 2,3-dimercapto-1-propanol tributyrate (DMPT) substrate, 37° C. for 20 minutes, absorbance at 405 nm; read-out: HSL hum IC50
Protocol: Production of Human Full Length Hormone Sensitive Lipase-His^6
1) Cloning: cDNA was prepared from commercial human brain polyA-+ RNA and used as a template in overlapping PCR to generate a full length human HSL ORF with a 3′-His6 tag. This full length insert was cloned into the pFast-BAC vector and the DNA-sequence of several single clones was verified. DNA from a correct full length clone with the 3′His6 tag was used to transform the E. coli strain DH10BAC. Resulting bacmid DNA was used to generate a titered baculovirus stock for protein generation.
Cells were thawed. […] was done at 3×30 sec., Lubrol PX was added to 0.2% final concentration followed by stirring for 15 min. at 4° C. and centrifugation at 25 k×g, 60 min., 4° C. […] Supernatant was removed, the resin washed in the centrifuge vessel using 5 volumes of Base Buffer containing 0.2% Lubrol PX. Centrifugation was done again, then the supernatant discarded. The resin wass poured onto a 0.8 μm membrane in a disposable filter unit (Nalge 450-0080), and washed with 5 volumes of Base Buffer containing 0.2% Lubrol PX. It was then washed with 30 volumes of Base Buffer containing 60 mM imidazole pH 7.5 at 4° C. The protein was eluated with 5 volumes of 25 mM Tris-Cl, 300 mM NaCl, 200 mM imidazole, 10 mM 2-mercaptoethanol, pH 7.5 at 4° C. by tumbling resin with buffer end-over-end, 30 min., 4° C. The resin was captured on a 0.2 μm membrane disposable filter unit (Millipore SCGP U02 RE) and the eluate collected in the reservoir. The eluate was concentrated using a 30 k MWCO centrifugal filter device (Sartorius Vivascience Vivacell 100, VC1022), to 20 ml. It was then dialyzed overnight at 4° C., two times against 2 L of 10% glycerol, 25 mM Tris-Cl, 300 mM NaCl, 0.2 mM EDTA, 0.2 mM DTT, pH 7.5 at 4° C. The protein was filtered using a 0.22 μm disposable filter unit (Millipore SCGP00525). The protein concentration was calculated from absorbance at 280 nm, using 280=0.67 cm-1 mg-1. […] The protein was stored at −80° C.
Human Hormone-Sensitive Lipase (HSL) Enzyme Inhibition Assay:
HSL enzyme activity was measured by a colorimetric assay using 2,3-dimercapto-1-propanol tributyrate (Aldrich, St. Louis, Mo.) as a substrate. Typically, 1.5 mM 2,3-dimercapto-1-propanol tributyrate (DMPT) in 100 mM MOPS, pH 7.2, 0.2 mg/ml fatty acid-free BSA was prepared by sonication at 4° C. to homogenous suspension. Test compounds (2 mM stock in DMSO) were diluted 3 fold in series in DMSO. Compound solutions were diluted 24 fold in 1.5 mM DMPT containing solution and 18 ul per well was added to 384-well microplates (Corning Costar). Twelve microliters per well of human HSL (15 ug/ml) was added and the reaction mixture was incubated at 37° C. for 20 minutes. Six microliters of 12 mM dithio-bis-(2-nitrobenzoic acid) (DTNB) in DMSO plus 1.2% SDS and 0.6% Triton X-100 were added and the mixture was incubated at room temperature for 15 minutes. Product production was monitored by reading absorbance at 405 nm on an Envision Reader (PerkinElmer Life and Analytical Sciences, Shelton, Conn.).

SMILES	IC50 [µM]
CC(C)(C)CS(=O)(=O)N1CCC2(CCN(c3ccc(OC(F)(F)F)cc3)C2=O)CC1 [Example 19, 8-(2,2-Dimethyl-propane-1-sulfonyl)-2-(4-trifluoromethoxy-phenyl)-2,8-diaza-spiro[4.5]decan-1-one]	0.04
CCc1ccc(N2CCC3(CCN(C(=O)CC(C)(C)C)CC3)C2=O)cc1 [Example 20, 8-(3,3-Dimethyl-butyryl)-2-(4-ethyl-phenyl)-2,8-diaza-spiro[4.5]decan-1-one]	0.24
CCc1ccc(N2CCC3(CCN(S(=O)(=O)N4CCOCC4)CC3)C2=O)cc1 [Example 21, 2-(4-Ethyl-phenyl)-8-(morpholine-4-sulfonyl)-2,8-diaza-spiro[4.5]decan-1-one]	0.27
CC(C)CS(=O)(=O)N1CCC2(CCN(c3ccc(OC(C)C)cc3)C2=O)CC1 [Example 23, 2-(4-Isopropoxy-phenyl)-8-(2-methyl-propane-1-sulfonyl)-2,8-diaza-spiro[4.5]decan-1-one]	0.16
CCc1ccc(N2CCC3(CCN(S(=O)(=O)CC(C)C)CC3)C2=O)cc1 [Example 24, 2-(4-Ethyl-phenyl)-8-(2-methyl-propane-1-sulfonyl)-2,8-diaza-spiro[4.5]decan-1-one]	0.1
O=C1N(c2ccc(OCC(F)(F)F)cc2)CCC12CCN(S(=O)(=O)c1ccccc1)CC2 [Example 26, 8-Benzenesulfonyl-2-[4-(2,2,2-trifluoro-ethoxy)-phenyl]-2,8-diaza-spiro[4.5]decan-1-one]	0.06
O=C1N(c2ccc(OC(F)(F)F)cc2)CCC12CCN(S(=O)(=O)c1cccs1)CC2 [Example 28, 8-(Thiophene-2-sulfonyl)-2-(4-trifluoromethoxy-phenyl)-2,8-diaza-spiro[4.5]decan-1-one]	0.04
CCc1ccc(N2CCC3(CCN(S(=O)(=O)c4cccs4)CC3)C2=O)cc1 [Example 29, 2-(4-Ethyl-phenyl)-8-(thiophene-2-sulfonyl)-2,8-diaza-spiro[4.5]decan-1-one]	0.05
CCc1ccc(N2CCC3(CCN(S(=O)(=O)CCC(F)(F)F)CC3)C2=O)cc1 [Example 30, 2-(4-Ethyl-phenyl)-8-(3,3,3-trifluoro-propane-1-sulfonyl)-2,8-diaza-spiro[4.5]decan-1-one]	0.36
CCCc1ccc(N2CCC3(CCN(C(=O)CC(C)(C)C)CC3)C2=O)cc1 [Example 31, 8-(3,3-Dimethyl-butyryl)-2-(4-propyl-phenyl)-2,8-diaza-spiro[4.5]decan-1-one]	0.08
CCc1ccc(N2CCC3(CCN(S(=O)(=O)CC(C)(C)C)CC3)C2=O)cc1 [Example 32, 8-(2,2-Dimethyl-propane-1-sulfonyl)-2-(4-ethyl-phenyl)-2,8-diaza-spiro[4.5]decan-1-one]	0.08
O=C1N(c2ccc(C3CC3)cc2)CCC12CCN(S(=O)(=O)c1ccccc1Cl)CC2 [Example 33, 8-(2-Chloro-benzenesulfonyl)-2-(4-cyclopropyl-phenyl)-2,8-diaza-spiro[4.5]decan-1-one]	0.03
CSc1ccc(N2CCC3(CCN(S(=O)(=O)c4ccccc4Cl)CC3)C2=O)cc1 [Example 34, 8-(2-Chloro-benzenesulfonyl)-2-(4-methylsulfanyl-phenyl)-2,8-diaza-spiro[4.5]decan-1-one]	0.1
CC(C)(C)CC(=O)N1CCC2(CC1)CCN(c1ccc(C3CC3)cc1)C2=O [Example 35, 2-(4-Cyclopropyl-phenyl)-8-(3,3-dimethyl-butyryl)-2,8-diaza-spiro[4.5]decan-1-one]	0.17
O=C1N(c2ccc(C3CC3)cc2)CCC12CCN(S(=O)(=O)c1cccs1)CC2 [Example 36, 2-(4-Cyclopropyl-phenyl)-8-(thiophene-2-sulfonyl)-2,8-diaza-spiro[4.5]decan-1-one]	0.05
O=C(CC1CCCC1)N1CCC2(CC1)CCN(c1ccc(C3CC3)cc1)C2=O [Example 37, 8-(2-Cyclopentyl-acetyl)-2-(4-cyclopropyl-phenyl)-2,8-diaza-spiro[4.5]decan-1-one]	0.22
O=C1N(c2ccc(C3CC3)cc2)CCC12CCN(S(=O)(=O)Cc1ccccc1)CC2 [Example 38, 2-(4-Cyclopropyl-phenyl)-8-phenylmethanesulfonyl-2,8-diaza-spiro[4.5]decan-1-one]	0.06
CCCS(=O)(=O)N1CCC2(CCN(c3ccc(C4CC4)cc3)C2=O)CC1 [Example 39, 2-(4-Cyclopropyl-phenyl)-8-(propane-1-sulfonyl)-2,8-diaza-spiro[4.5]decan-1-one]	0.2
CC(C)(C)CC(=O)N1CCC2(CC1)CCN(c1ccc(CC(F)(F)F)cc1)C2=O [Example 40, 8-(3,3-Dimethyl-butyryl)-2-[4-(2,2,2-trifluoro-ethyl)-phenyl]-2,8-diaza-spiro[4.5]decan-1-one]	0.08
CCc1ccc(N2CCC3(CCN(S(=O)(=O)c4ccc(C)s4)CC3)C2=O)cc1 [Example 41, 2-(4-Ethyl-phenyl)-8-(5-methyl-thiophene-2-sulfonyl)-2,8-diaza-spiro[4.5]decan-1-one]	0.06
Cc1ccc(S(=O)(=O)N2CCC3(CCN(c4ccc(OC(F)(F)F)cc4)C3=O)CC2)s1 [Example 42, 8-(5-Methyl-thiophene-2-sulfonyl)-2-(4-trifluoromethoxy-phenyl)-2,8-diaza-spiro[4.5]decan-1-one]	0.04
CCC(C)c1ccc(N2CCC3(CCN(S(=O)(=O)c4cccs4)CC3)C2=O)cc1 (stereo not drawn) [Example 43, 2-(4-sec-Butyl-phenyl)-8-(thiophene-2-sulfonyl)-2,8-diaza-spiro[4.5]decan-1-one]	0.04
CCC(C)c1ccc(N2CCC3(CCN(S(=O)(=O)N4CCOCC4)CC3)C2=O)cc1 (stereo not drawn) [Example 44, 2-(4-sec-Butyl-phenyl)-8-(morpholine-4-sulfonyl)-2,8-diaza-spiro[4.5]decan-1-one]	0.1
CCC(C)c1ccc(N2CCC3(CCN(S(=O)(=O)c4ccc(C)s4)CC3)C2=O)cc1 (stereo not drawn) [Example 45, 2-(4-sec-Butyl-phenyl)-8-(5-methyl-thiophene-2-sulfonyl)-2,8-diaza-spiro[4.5]decan-1-one]	0.06
